We go through 31 molecules from US20250170141A1, “MRGPRX2 MODULATORS AND RELATED METHODS OF TREATMENT” (Escient Pharmaceuticals, Inc., priority 2023, published 2025).

Structures are written as SMILES.

For this assay, the target named is T1, human MRGPRX2 (Homo sapiens, UniProt Q96LB1).
T1 construct: expressed in transfected cells; host or cells: CHO cells, stably transfected (G418 and Hygromycin B selection)
T1 sequence (Q96LB1 1-330): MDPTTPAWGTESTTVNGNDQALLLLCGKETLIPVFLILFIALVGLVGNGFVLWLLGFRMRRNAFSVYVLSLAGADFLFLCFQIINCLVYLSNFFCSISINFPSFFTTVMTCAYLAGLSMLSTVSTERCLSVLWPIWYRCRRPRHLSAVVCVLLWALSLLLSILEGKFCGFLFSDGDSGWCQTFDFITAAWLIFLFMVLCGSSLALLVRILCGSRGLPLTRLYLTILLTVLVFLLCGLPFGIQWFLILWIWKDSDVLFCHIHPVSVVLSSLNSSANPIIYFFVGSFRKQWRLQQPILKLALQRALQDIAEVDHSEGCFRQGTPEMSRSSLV
Put plainly: MRGPRX2 activity: IP-One Gq HTRF assay in CHO cells, antagonism versus 0.3 uM Cortistatin-14. In kind it is cell-based. As to conditions: versus 0.3 uM Cortistatin-14 agonist, CHO cells expressing human MRGPRX2, read-out: MRGPRX2 Antagonist Activity. The gist of the method: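 CHO cells stably expressing human MRGPRX2 were treated with a 10-point compound curve (30 uM top, 1:3) plus 0.3 μM Cortistatin-14 in LiCl-containing Tris buffer, pH 8. Incubation was 1 h at 37 °C then 1 h at room temperature; IP-1 was detected by HTRF and IC50 came from the HTRF ratio.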

For the molecule `COc1ccccc1CNC1=NS(=O)(=O)c2cccc(Cc3ccccc3Cl)c2N1` [Compound 12-24, 5-(2-chlorobenzyl)-3-((2-methoxybenzyl)amino)-4H-benzo[e][1,2,4]thiadiazine 1,1-dioxide], the IC50 was < 100 nM.
As for `COc1cccnc1CNC1=NS(=O)(=O)c2cccc(Cc3ccccc3Cl)c2N1` [Compound 12-25, 5-(2-chlorobenzyl)-3-(((3-methoxypyridin-2-yl)methyl)amino)-4H-benzo[e][1,2,4]thiadiazine 1,1-dioxide], the figure is < 100 nM; as for `COc1ccncc1CNC1=NS(=O)(=O)c2cccc(Cc3ccccc3Cl)c2N1` [Compound 12-26, 5-(2-chlorobenzyl)-3-(((4-methoxypyridin-3-yl)methyl)amino)-4H-benzo[e][1,2,4]thiadiazine 1,1-dioxide], 1000 to 2500 nM.
As for `O=S1(=O)N=C(NCc2ccccc2C(F)(F)F)Nc2c(Cc3ccccc3Cl)cccc21` [Compound 12-27, 5-(2-chlorobenzyl)-3-((2-(trifluoromethyl)benzyl)amino)-4H-benzo[e][1,2,4]thiadiazine 1,1-dioxide], the figure is < 100 nM.
As for `O=S1(=O)N=C(NCc2cccnc2F)Nc2c(Cc3ccccc3Cl)cccc21` [Compound 12-28, 5-(2-chlorobenzyl)-3-(((2-fluoropyridin-3-yl)methyl)amino)-4H-benzo[e][1,2,4]thiadiazine 1,1-dioxide], the figure is < 100 nM; as for `O=S1(=O)N=C(NCc2ncccc2C(F)(F)F)Nc2c(Cc3ccccc3Cl)cccc21` [Compound 12-29, 5-(2-chlorobenzyl)-3-(((3-(trifluoromethyl)pyridin-2-yl)methyl)amino)-4H-benzo[e][1,2,4]thiadiazine 1,1-dioxide], < 100 nM.
Consider `O=S1(=O)N=C(NCc2cnccc2C(F)(F)F)Nc2c(Cc3ccccc3Cl)cccc21` [Compound 12-30, 5-(2-chlorobenzyl)-3-(((4-(trifluoromethyl)pyridin-3-yl)methyl)amino)-4H-benzo[e][1,2,4]thiadiazine 1,1-dioxide], for which the IC50 was < 100 nM.
As for `O=S1(=O)N=C(NCc2cccnc2C(F)(F)F)Nc2c(Cc3ccccc3Cl)cccc21` [Compound 12-31, 5-(2-chlorobenzyl)-3-(((2-(trifluoromethyl)pyridin-3-yl)methyl)amino)-4H-benzo[e][1,2,4]thiadiazine 1,1-dioxide], the figure is < 100 nM; as for `O=S1(=O)N=C(NCc2cnccc2Cl)Nc2c(Cc3ccccc3Cl)cccc21` [Compound 12-32, 5-(2-chlorobenzyl)-3-(((4-chloropyridin-3-yl)methyl)amino)-4H-benzo[e][1,2,4]thiadiazine 1,1-dioxide], < 100 nM; as for `C=C(c1ccccc1F)c1cccc2c1NC(NCc1ncccc1Cl)=NS2(=O)=O` [Compound 13-1, 3-(((3-chloropyridin-2-yl)methyl)amino)-5-(1-(2-fluorophenyl)vinyl)-4H-benzo[e][1,2,4]thiadiazine 1,1-dioxide], < 100 nM.
`C=C(c1ccccc1F)c1cccc2c1NC(NCc1ncccc1F)=NS2(=O)=O` [Compound 13-2, 5-(1-(2-fluorophenyl)vinyl)-3-(((3-fluoropyridin-2-yl)methyl)amino)-4H-benzo[e][1,2,4]thiadiazine 1,1-dioxide]: the IC50 was < 100 nM.
The same measure for `C=C(c1ccccc1F)c1c(F)ccc2c1NC(NCc1ncccc1F)=NS2(=O)=O` [Compound 13-3, 6-fluoro-5-(1-(2-fluorophenyl)vinyl)-3-(((3-fluoropyridin-2-yl)methyl)amino)-4H-benzo[e][1,2,4]thiadiazine 1,1-dioxide]: < 100 nM.
The same measure for `O=S1(=O)N=C(NCc2ncccc2Cl)Nc2c(/C=C/c3ccccc3F)cccc21` [Compound 14-1, (E)-3-(((3-chloropyridin-2-yl)methyl)amino)-5-(2-fluorostyryl)-4H-benzo[e][1,2,4]thiadiazine 1,1-dioxide]: < 100 nM.
In the case of `O=S1(=O)N=C(NCc2ncccc2F)Nc2c1ccc(F)c2/C=C/c1ccccc1F` [Compound 14-2, (E)-6-fluoro-3-(((3-fluoropyridin-2-yl)methyl)amino)-5-(2-fluorostyryl)-4H-benzo[e][1,2,4]thiadiazine 1,1-dioxide], the IC50 was in the range of 100 to 500 nM.
The same measure for `O=S1(=O)N=C(NCc2ncccc2F)Nc2c(/C=C/c3ccccc3F)cccc21` [Compound 14-3, (E)-3-(((3-fluoropyridin-2-yl)methyl)amino)-5-(2-fluorostyryl)-4H-benzo[e][1,2,4]thiadiazine 1,1-dioxide]: < 100 nM; for `CC(C)(c1ccccc1F)c1cccc2c1NC(NCc1ncccc1Cl)=NS2(=O)=O` [Compound 15-1, 3-(((3-chloropyridin-2-yl)methyl)amino)-5-(2-(2-fluorophenyl)propan-2-yl)-4H-benzo[e][1,2,4]thiadiazine 1,1-dioxide]: 501 to 1000 nM; for `O=C(c1ccccc1Cl)c1cccc2c1NC(NCc1ncccc1Cl)=NS2(=O)=O` [Compound 16-1, (2-chlorophenyl)(3-(((3-chloropyridin-2-yl)methyl)amino)-1,1-dioxido-4H-benzo[e][1,2,4]thiadiazin-5-yl)methanone]: < 100 nM.
For `O=C(c1ccccc1Cl)c1cccc2c1NC(NCc1ccccc1F)=NS2(=O)=O` [Compound 16-2, (2-chlorophenyl)(3-((2-fluorobenzyl)amino)-1,1-dioxido-4H-benzo[e][1,2,4]thiadiazin-5-yl)methanone], the IC50 was < 100 nM.
Take `COCCNC1=NS(=O)(=O)c2cccc(C(=O)c3ccccc3Cl)c2N1` [Compound 16-3, (2-chlorophenyl)(3-((2-methoxyethyl)amino)-1,1-dioxido-4H-benzo[e][1,2,4]thiadiazin-5-yl)methanone]: the IC50 is 1000 to 2500 nM.
The same measure for `O=C(c1ccccc1Cl)c1cccc2c1NC(NCc1ncccc1C(F)(F)F)=NS2(=O)=O` [Compound 16-4, (2-chlorophenyl)(1,1-dioxido-3-(((3-(trifluoromethyl)pyridin-2-yl)methyl)amino)-4H-benzo[e][1,2,4]thiadiazin-5-yl)methanone]: < 100 nM; for `O=C(c1ccccc1Cl)c1cccc2c1NC(NCc1ncccc1F)=NS2(=O)=O` [Compound 16-5, (2-chlorophenyl)(3-(((3-fluoropyridin-2-yl)methyl)amino)-1,1-dioxido-4H-benzo[e][1,2,4]thiadiazin-5-yl)methanone]: 100 to 500 nM; for `O=C(c1ccccc1Cl)c1c(F)ccc2c1NC(NCc1ncccc1F)=NS2(=O)=O` [Compound 16-6, (2-chlorophenyl)(6-fluoro-3-(((3-fluoropyridin-2-yl)methyl)amino)-1,1-dioxido-4H-benzo[e][1,2,4]thiadiazin-5-yl)methanone]: 100 to 500 nM.
Consider `O=S1(=O)N=C(NCc2ncccc2F)Nc2c(NCc3ccccc3Cl)cccc21` [Compound 17-1, 5-((2-chlorobenzyl)amino)-3-(((3-fluoropyridin-2-yl)methyl)amino)-4H-benzo[e][1,2,4]thiadiazine 1,1-dioxide], for which the IC50 is > 2500 nM.
As for `O=S1(=O)N=C(NCc2ncccc2F)Nc2c1ccc(F)c2C#Cc1ccccc1` [Compound 19-1, 6-fluoro-3-(((3-fluoropyridin-2-yl)methyl)amino)-5-(phenylethynyl)-4H-benzo[e][1,2,4]thiadiazine 1,1-dioxide], the figure is 100 to 500 nM.
The same measure for `CCC(c1ccccc1F)c1c(F)ccc2c1NC(NCc1ncccc1F)=NS2(=O)=O` (stereo not shown) [Compound 20-1, 6-fluoro-5-(1-(2-fluorophenyl)propyl)-3-(((3-fluoropyridin-2-yl)methyl)amino)-4H-benzo[e][1,2,4]thiadiazine 1,1-dioxide]: < 100 nM.
The same measure for `CCC(c1ccccc1F)c1cccc2c1NC(NCc1ncccc1F)=NS2(=O)=O` (stereo not shown) [Compound 21-1, 5-(1-(2-fluorophenyl)propyl)-3-(((3-fluoropyridin-2-yl)methyl)amino)-4H-benzo[e][1,2,4]thiadiazine 1,1-dioxide]: < 100 nM; for `CC(c1ccccc1)c1c(F)ccc2c1NC(NCc1cccc(F)c1)=NS2(=O)=O` (stereo not shown) [Compound 22-1, 6-fluoro-3-((3-fluorobenzyl)amino)-5-(1-phenylethyl)-4H-benzo[e][1,2,4]thiadiazine 1,1-dioxide]: < 100 nM; for `Cc1ccccc1C(C)c1c(F)ccc2c1NC(NCc1cccc(F)c1)=NS2(=O)=O` (stereo not shown) [Compound 22-2, 6-fluoro-3-((3-fluorobenzyl)amino)-5-(1-(o-tolyl)ethyl)-4H-benzo[e][1,2,4]thiadiazine 1,1-dioxide]: < 100 nM.
On to `CC(c1c(F)ccc2c1NC(NCc1cccc(F)c1)=NS2(=O)=O)C1CCOCC1` (stereo not shown) [Compound 22-3, 6-fluoro-3-((3-fluorobenzyl)amino)-5-(1-(tetrahydro-2H-pyran-4-yl)ethyl)-4H-benzo[e][1,2,4]thiadiazine 1,1-dioxide], for which the IC50 is < 100 nM.
As for `CC(C)CC(C)c1c(F)ccc2c1NC(NCc1cccc(F)c1)=NS2(=O)=O` (stereo not shown) [Compound 22-4, 6-fluoro-3-((3-fluorobenzyl)amino)-5-(4-methylpentan-2-yl)-4H-benzo[e][1,2,4]thiadiazine 1,1-dioxide], the figure is < 100 nM; as for `CC(c1c(F)ccc2c1NC(NCc1cccc(F)c1)=NS2(=O)=O)C1CCCCC1` (stereo not shown) [Compound 22-5, 5-(1-cyclohexylethyl)-6-fluoro-3-((3-fluorobenzyl)amino)-4H-benzo[e][1,2,4]thiadiazine 1,1-dioxide], < 100 nM.
